According to PMC4750079, “Tackling amyloidogenesis in Alzheimer’s disease with A2V variants of Amyloid-β” (Scientific Reports, 2016):
Where a SMILES comes first, the peptide text is derived from it. [ ]: non-standard residue; d: D form.

Assays:
[1] = test system: Aβ1-42WT toxicity in SH-SY5Y cells; experiment: Inhibition of the toxicity induced by Aβ1-42WT in SH-SY5Y cell cultures (MTT test); format: cell-based, human; conditions: differentiated SH-SY5Y, co-incubated with Aβ1-42WT, 24 h
Method: Figure 2 Analysis of the effects of Aβ1-6WT(D), Aβ1-6A2V(D) and Aβ1-6A2VTAT(D) on neurotoxicity in cell models. SH-SY5Y cells were differentiated with 10 μM retinoic acid. After 6 days the proper peptide was added to culture medium and cell viability was assessed after 24 h by MTT test. […] Conversely, Aβ1-42WT reduces cell viability by 35%. * Significance vs non-treated cells. (C,D) Both Aβ1-6WT(D) and Aβ1-6A2V(D) are able to counteract the toxic effect of Aβ1-42WT. […] Comparison of cell viability was performed by Student t-test.
Toxicity studies with Aβ1-6WT(D), Aβ1-6A2V(D) or Aβ1-6A2VTAT(D) and the short peptides’ ability to inhibit the toxicity induced by Aβ1-42WT in SH-SY5Y cell cultures were analyzed following previously described protocols. Each experiment was performed in triplicate; the data provided were obtained as the mean of three independent assays.

[2] = Brain levels after intraperitoneal administration (HPLC-MS/MS); format: in vivo; conditions: mice
Method: APP23 mice (Harlan, Correzzana, Italy) were treated by intraperitoneal injection with Aβ1-6A2VTAT(D) (10 mg/kg) or vehicle (saline solution) and sacrificed 1 h or 24 h after the last treatment. Aβ1-6A2VTAT(D) was quantified in mouse brain using HPLC-MS/MS[45]. The stability of Aβ1-6A2VTAT(D) to protease digestion was also investigated by MALDI TOF MS (See Supplementary Information for details).
To verify Aβ1-6A2VTAT(D) distribution in vivo, and particularly its bioavailability in the brain, we determined Aβ1-6A2VTAT(D) levels in mice brains after i.p. injection at a dose of 10 mg/kg. Mice were sacrificed at two intervals (1 h, 24 h). Aβ1-6A2VTAT(D) was then quantified in mouse brain using HPLC-MS/MS.
The quantitative levels of Aβ1-6A2VTAT(D) in the brain were determined by following a previously described procedure ^4.
Supplementary Figure 4S Aβ1-6A2VTAT(D) levels in mouse brain (n=4). Data are reported as mean ± SEM of peptide/mg tissue. Animals were treated i.p. at a dose of 10 mg/kg. Animals were sacrificed 1 h or 24 h after last administration following 21 […] treatments (*p < 0.05 T1-1h vs T1-24h and Student’s t-test).

huAPPSwe/moAPP0/0 mice = experiment: Pilot preclinical study in huAPPSwe/moAPP0/0 mice; format: in vivo, mouse
Method: Transgenic APP23 mice expressing the Swedish double mutation in the human APP gene[46] and knock-out for endogenous APP (huAPP^Swe/moAPP^0/0) were generated in our lab by crossing APP23 mice with APP^0/0 animals. Mice (n = 6) were treated intraperitoneally (i.p.) every day for 21 days with Aβ1-6A2VTAT(D) (10 mg/kg) or saline solution and culled 24 h after the last treatment.
(§1) The left hemisphere of each brain was homogenized in 7 volumes of 10 mM Tris-HCl, pH 7.4, added with cOmplete Mini Protease Inhibitors cocktail (Roche), sonicated for 1 min using an ultrasonic homogenizer (SONOPULS) and centrifuged at 100,000 xg for 1 h at 4 °C. The supernatant was saved as the soluble fraction; the pellet was extracted in 70% formic acid and neutralized with 20 volumes of 1 M Tris (insoluble fraction).
(§2) Aβ40, Aβ42 and aggregated Aβ were measured in both soluble and insoluble fractions by ELISA (Invitrogen). Each experiment was performed in triplicate. The analysis of APP processing followed the protocol described above. After centrifugation, the supernatant was collected as the SDS-soluble fraction, which was analyzed by western blot with the A8717 antibody (Sigma). Signal intensity of the bands was measured by Quantity One (BioRad).
(§3) Coronal slices of the right hemibrain were embedded in paraffin and cut (7μm); sections were de-waxed in xylene and hydrated through serial alcohols to water. After formic acid (80%) pre-treatment, sections were incubated overnight with anti-Aβ antibody (4G8, 1:4000; Covance). The primary antibody signal was detected with a biotinylated secondary antibody followed by horseradish streptavidin peroxidase and visualized with DAB. Amyloid deposition was quantified in mouse brain using Aβ immunostaining (4G8) and the staining intensity was evaluated semiquantitatively using a scale range from 0 to 5 by light microscopy. The assessment was conducted in two adjacent sections of the same brain area[49]. A parallel quantification of the Aβ plaque load was performed using image analysis software (NIS-elements-Nikon)[50][51][52].

APPswe/PS1dE9 mice = experiment: Treatment of APPswe/PS1dE9 mice; format: in vivo, mouse; conditions: for amyloid burden (plaque count, area fraction): 4G8 immunohistochemistry
Excerpt: Heterozygous four-month-old female APPswe/PS1dE9 transgenic mice were used in this study. These mice express human APP carrying the Swedish mutation together with human presenilin 1 (PS1) carrying the pathogenic dE9 mutation. Animals were divided in 2 experimental groups (n = 10 each), treated i.p. once a week with saline solution or Aβ1-6A2VTAT(D) and culled 2.5 (intermediate time) and 5 months (final time) after treatment. In both mouse transgenic lines, the brain was removed and dissected into 2 hemibrains by midsagittal dissection. One half was immediately stored at […] for biochemical assays, the other immediately immersed in formalin (10%) overnight for immunohistochemical studies.
The Novel Object Recognition test (NOR) was used to examine the cognitive performance of animal models involved in preclinical studies, following well consolidated protocols. The results of the NOR were expressed by using:
- Discrimination index (time exploring novel object - time exploring familiar object)/(time exploring novel object + time exploring familiar object).
- Recognition index (RI): time exploring novel object/(time exploring novel object + time exploring familiar object) %.
as §1, §2, §3

[3] = i.p. daily for 21 days, vs saline, ELISA
[4] = i.p. 10 mg/kg once a week for 2.5 months, vs saline, ELISA
[5] = i.p. 10 mg/kg once a week for 5 months, vs saline

Structure (SMILES): CC(C)[C@@H](NC(=O)[C@H](N)CC(=O)O)C(=O)N[C@H](CCC(=O)O)C(=O)N[C@H](Cc1ccccc1)C(=O)N[C@H](CCCNC(=N)N)C(=O)N[C@H](Cc1c[nH]cn1)C(=O)NCC(=O)NCC(=O)NCC(=O)NCC(=O)NCC(=O)N[C@H](CCCNC(=N)N)C(=O)N[C@H](CCCCN)C(=O)N[C@H](CCCCN)C(=O)N[C@H](CCCNC(=N)N)C(=O)N[C@H](CCCNC(=N)N)C(=O)N[C@H](CCC(N)=O)C(=O)N[C@H](CCCNC(=N)N)C(=O)N[C@H](CCCNC(=N)N)C(=O)N[C@H](CCCNC(=N)N)C(=O)O [Aβ1-6A2VTAT(D)] (H-[dD][dV][dE][dF][dR][dH]GGGGG[dR][dK][dK][dR][dR][dQ][dR][dR][dR]-OH; N-terminus assumed)
- effect on toxicity induced by Aβ1-42WT [1]: significant dose-dependent reduction of the toxicity
- tissue level at time at 1 h ([2]; APP23, mouse, brain, ip, i.p. 10 mg/kg once a week for five months (21 weekly treatments), 1 h, HPLC-MS/MS, mean ± SEM, n=4, read-out: brain levels 1 h after last treatment): 145 ± 38.3 ng/g
- tissue level at time at 24 h ([2]; APP23, mouse, brain, ip, i.p. 10 mg/kg once a week for five months (21 weekly treatments), 24 h, HPLC-MS/MS, mean ± SEM, n=4, read-out: brain levels 24 h after last treatment): 62 ± 28.7 ng/g
- ability to cross the BBB ([2]; i.p. administration): able to cross the BBB
- intracerebral amyloid deposits (huAPPSwe/moAPP0/0 mice; 13-month-old mice, i.p. once a day for 3 weeks, 4G8 immunohistochemistry, plaque count): decrease of intracerebral amyloid deposits
- effects on APP processing (C99:C83 ratio), short-term (huAPPSwe/moAPP0/0 mice; after 3 weeks of treatment, western blot): not observed after short-term treatment schedules
- Aβ42 in the soluble fraction and Aβ40, Aβ42 and aggregated Aβ in the insoluble fraction (huAPPSwe/moAPP0/0 mice; [3]): not significantly lower
- brain Aβ40 levels in the soluble fraction (huAPPSwe/moAPP0/0 mice; [3]): reduction of Aβ40 levels in the soluble fraction
- brain aggregated Aβ (soluble fraction) (huAPPSwe/moAPP0/0 mice; [3]): decrease in aggregated Aβ
- effects on APP processing (C99:C83 ratio), short-term (APPswe/PS1dE9 mice; after 2.5 months of treatment, western blot): not observed after short-term treatment schedules
- side effect on brain (neuropathologic studies) (APPswe/PS1dE9 mice; chronic treatment, data not shown): did not result in any evident side effect on brain
- Novel Object Recognition test scores (APPswe/PS1dE9 mice; i.p. 10 mg/kg once a week for 2.5 months): small, albeit not statistically significant, improvement
- amyloid burden (plaque count, area fraction) (APPswe/PS1dE9 mice; i.p. 10 mg/kg once a week for 2.5 months, vs saline): reduction of amyloid burden
- brain Aβ40 (APPswe/PS1dE9 mice; [4]): not changed compared to controls
- brain Aβ42 in the insoluble fraction (APPswe/PS1dE9 mice; [4]): concomitant decrease in the insoluble fraction
- brain Aβ42 in the soluble fraction (APPswe/PS1dE9 mice; [4]): increase of Aβ42 in the soluble fraction
- brain aggregated Aβ, soluble and insoluble fraction (APPswe/PS1dE9 mice; [4]): reduced in both the compartments
- Novel Object Recognition test, recognition and discrimination indexes (APPswe/PS1dE9 mice; [5]): preserved cognitive function
- amyloid burden (plaque count, area fraction) (APPswe/PS1dE9 mice; [5]): unexpectedly increased
- brain Aβ levels (Aβ40, Aβ42, aggregated Aβ) (APPswe/PS1dE9 mice; i.p. 10 mg/kg once a week for 5 months, vs saline, ELISA): no significant difference compared to mice treated with saline solution
- C99:C83 ratio in brain (APP processing) (APPswe/PS1dE9 mice; i.p. every 7 days for 5 months, western blot densitometry): increase in the C99:C83 ratio
